# Measurements: US20180296630A1, “METHODS AND COMPOSITIONS FOR PREVENTING OR TREATING OPHTHALMIC CONDITIONS” (Stealth BioTherapeutics Corp, priority 2012, published 2018)
# Tests used:
# [1] = test system: GTM3 cells; assay: ROS production, sustained oxidative injury by H2O2, GTM3 cells; format: cell-based, human; settings: then 200 μM H2O2 24 h
# Description: (§1) The effects of D-Arg-2′,6′-Dmt-Lys-Phe-NH2 on sustained oxidative injury of GTM and HTM cells was examined. Cells were pre-treated with 10^−6, 10^−7, 10^−8M of D-Arg-2′,6′-Dmt-Lys-Phe-NH2 for 1 h, and then incubated with 200 μM H2O2 for 24 h to investigate the protective effect of D-Arg-2′,6′-Dmt-Lys-Phe-NH2 in sustained oxidative stress.
# [2] = test system: iHTM cells; assay: MMP decline, sustained oxidative injury by H2O2, iHTM cells; format: cell-based, human; settings: then 200 μM H2O2 24 h
# Description: as §1
# [3] = test system: primary human retinal pigment epithelial (RPE) cells; assay: Apoptosis of RPE cells induced by tBHP; format: cell-based; settings: 1 μM for 4 h + 250 μM tBHP for 24 h
# Description: FIG. 34A: control group; (Q2+Q4)%=1.27±0.3%; FIG. 34B: 250 μM tBHP for 24 h group; (Q2+Q4)%=15.7±0.6%; FIG. 34C: 1 μM D-Arg-2′,6′-Dmt-Lys-Phe-NH2 for 4 h+250 μM tBHP for 24 h group; (Q2+Q4)%=8.4±0.8%. FIG. 34D is a chart comparing the fluorescence ratio for the different groups. *P<0.05 C vs. B. FIG. 35 is a chart showing the MDA level induced by tBHP in 3 groups of RPE cells. (*P<0.05).
# [4] = test system: GTM cells; assay: Morphology of GTM cells exposed to H2O2 (inverted phase contrast microscopy); format: cell-based, human; settings: peptide prior to H2O2, concentration-dependent and time-dependent
# Text: The morphology of GTM cells was investigated when those cells were exposed to D-Arg-2′,6′-Dmt-Lys-Phe-NH2 prior to administration of hydrogen peroxide. […] That is, hydrogen peroxide mediated cell loss and rounding was diminished in cells exposed to D-Arg-2′,6′-Dmt-Lys-Phe-NH2 peptide. The mitochondrial membrane potential (Δψm) of HTM and GTM cells was also investigated when those cells were exposed to D-Arg-2′,6′-Dmt-Lys-Phe-NH2 prior to administration of hydrogen peroxide. The mitochondrial membrane potential was measured using confocal microscopy of cells labeled with tetramethylrhodamine methyl ester (TMRM, 500 nM×30 min) (FIG. 19-21). […] As such, D-Arg-2′,6′-Dmt-Lys-Phe-NH2 provides a protective effect against oxidative stress in GTM cells.
# [5] = test system: mouse model of retina degeneration; assay: Mouse model of retina degeneration (ONL thickness, PNA cone staining); format: in vivo; settings: compared to untreated mice
# Text: CNV is induced in the eye with laser burns. (see Example 6). Mouse models of retinal degeneration have been investigated for many years in the hope of understanding the causes of photoreceptor cell death. Naturally occurring mouse mutants that manifest degeneration of photoreceptors in the retina with preservation of all other retinal cell types have been found: retinal degeneration (formerly rd, identical with rodless retina, r, now Pde6b rd1); Purkinje cell degeneration (pcd); nervous (nr); retinal degeneration slow (rds, now Prph Rd2); retinal degeneration 3 (rd3); motor neuron degeneration (mnd); retinal degeneration 4 (Rd4); retinal degeneration 5 (rd5); vitiligo (vir, now Mitf mi-vit); retinal degeneration 6 (rd6); retinal degeneration 7 (rd7); neuronal ceroid lipofuscinosis (nclf); retinal degeneration 8 (rd8); retinal degeneration 9 (Rd9); retinal degeneration 10 (rd10); and cone photoreceptor function loss (cpfl1).
# FIG. 28 is a series of micrographs showing the thickness of the retinal outer nuclear layer (ONL) in a mouse model of retina degeneration in control and D-Arg-2′,6′-Dmt-Lys-Phe-NH2-treated mice.
# [6] = test system: GTM and HTM cells; assay: Oxidative stress induced by hydrogen peroxide in GTM and HTM cells (collective conclusion); format: cell-based, human
# Description: The cells were divided into three groups: “Group A” cells were exposed to hydrogen peroxide prior to administration of D-Arg-2′,6′-Dmt-Lys-Phe-NH2. “Group B” cells were exposed to D-Arg-2′,6′-Dmt-Lys-Phe-NH2 prior to administration of hydrogen peroxide. “Group C” cells were administered D-Arg-2′,6′-Dmt-Lys-Phe-NH2 and hydrogen peroxide simultaneously.
# as §1
# [7] = test system: primary human retinal pigment epithelial (RPE) cells; assay: Viability of primary RPE cells exposed to tBHP (MTT); format: cell-based; settings: preincubated 4 h with different concentrations, then tBHP 6 h
# Description: Next, the viability of primary RPE cells was tested in the presence of tBHP and various concentrations of D-Arg-2′,6′-Dmt-Lys-Phe-NH2. Cells were plated at 10,000 cells per well in a 96-well plate and cultured for 24 h, then starved for 24 h. After that, cells were exposed to increasing concentrations of tBHP (FIG. 23A), or preincubated for 4 h with different concentrations of D-Arg-2′,6′-Dmt-Lys-Phe-NH2, then stimulated with tBHP for 6 h (FIG. 23B). […] Intracellular ROS production in three groups of RPE cells was also examined using FACS analysis. […] Three different concentration of D-Arg-2′,6′-Dmt-Lys-Phe-NH2 groups were analyzed. The ratio of red to green in 500 μM tBHP for the 3 h group is 1.08, the ratio of red to green in 10 nM D-Arg-2′,6′-Dmt-Lys-Phe-NH2 for 4 h+500 tBHP for 3 h group is 1.25; the ratio of red to green in 100 nM D-Arg-2′,6′-Dmt-Lys-Phe-NH2 for 4 hr+500 μM tBHP for 3 h group is 1.4; and the ratio of red to green in 1 μM D-Arg-2′,6′-Dmt-Lys-Phe-NH2 for 4 h+500 μM tBHP for 3 h group is […]. […] FIG. 33A: Control group, R/G is 3.63±0.24; FIG. 33B: 500 μM tBHP for 3 h group, R/G is 1.08±0.11; FIG. 33C: 1 μM D-Arg-2′,6′-Dmt-Lys-Phe-NH2 for 4 h+500 μM tBHP for 3 h group, R/G is 2.38±0.18. FIG. 33D is a chart comparing the fluorescence ratio for the different groups. *P<0.01, C vs. B.
# [8] = test system: 661W cells; assay: Mitochondrial viability of 661W cells exposed to tBHP (JC-1 assay); format: cell-based, mouse; settings: 100 nmol/L
# Description: The potential of D-Arg-2′,6′-Dmt-Lys-Phe-NH2 (D-Arg-2′,6′-Dmt-Lys-Phe-NH2) to protect against loss of mitochondrial viability induced by tBHP, 100 nmol/L D-Arg-2′,6′-Dmt-Lys-Phe-NH2 was administered to the cultures of 661w cells.
substance,measurement,setting,value
"D-Arg-2′,6′-Dmt-Lys-Phe-NH2",ROS Production,[1]; 0.01 μM pre-treatment 1 h,133.70 ± 3.24 %
same,ROS Production,[1]; 0.1 μM pre-treatment 1 h,68.91 ± 8.62 %
same,ROS Production,[1]; 1 μM pre-treatment 1 h,47.40 ± 1.81 %
same,MMP Decline,[2]; 0.01 μM pre-treatment 1 h,−58.24 ± 2.62 %
same,MMP Decline,[2]; 0.1 μM pre-treatment 1 h,−53.24 ± 2.52 %
same,MMP Decline,[2]; 1 μM pre-treatment 1 h,−44.99 ± 2.19 %
same,(Q2+Q4)% cell apoptosis,[3],8.4±0.8%
same,hydrogen peroxide-mediated morphological changes (cell loss and rounding),[4],protects cells from hydrogen peroxide-mediated morphological changes
same,cone cell density (PNA-stained retinal flat mounts),[5],greater
same,rows of cells in the retinal outer nuclear layer (ONL),[5],retained a greater number of rows of cells
same,concentration at which sustained and acute oxidative stress induced by hydrogen peroxide can be prevented,[6],> 10^−9 M
same,cell viability in response to tBHP,[7],enhanced
same,mitochondrial viability (JC-1 assay),[8],significantly enhanced
